Laboratory results reported in BindingDB's records for doi:10.7270/Q2SX6BN0 (The Scripps Research Institute Molecular Screening Center, 2010).

Target: T1, NADPH oxidase 1 (Homo sapiens, UniProt Q9Y5S8)
T1 sequence (Q9Y5S8 whole entry): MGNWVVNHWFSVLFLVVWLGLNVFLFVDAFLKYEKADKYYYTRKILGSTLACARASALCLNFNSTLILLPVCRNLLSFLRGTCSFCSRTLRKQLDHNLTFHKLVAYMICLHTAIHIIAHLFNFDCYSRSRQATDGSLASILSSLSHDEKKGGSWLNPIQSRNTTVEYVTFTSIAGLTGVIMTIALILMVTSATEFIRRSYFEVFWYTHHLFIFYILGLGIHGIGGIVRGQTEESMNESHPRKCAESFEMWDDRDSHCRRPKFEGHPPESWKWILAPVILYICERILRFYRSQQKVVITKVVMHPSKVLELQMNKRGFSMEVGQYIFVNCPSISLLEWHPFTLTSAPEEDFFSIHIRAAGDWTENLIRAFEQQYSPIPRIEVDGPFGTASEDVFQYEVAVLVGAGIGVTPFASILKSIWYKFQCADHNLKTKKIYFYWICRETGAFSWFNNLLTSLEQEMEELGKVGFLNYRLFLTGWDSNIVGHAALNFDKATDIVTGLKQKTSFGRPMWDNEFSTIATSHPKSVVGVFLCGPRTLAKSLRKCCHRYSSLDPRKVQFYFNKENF
Experiment: HEK293 ROS counter-screen potency – cell-based, IC50, set 2, counter-screen for NOX1 inhibitor project, late-stage follow-up (AID 435002)

IC50 | SMILES
4 µM | CN(C)c1ccc(CN=Nc2c(Cl)cncc2Cl)cc1
10 µM | Oc1c(Br)cc(CN=Nc2c(Cl)cncc2Cl)cc1Br [4-[[2-[3,5-bis(chloranyl)pyridin-4-yl]hydrazinyl]methylidene]-2,6-bis(bromanyl)cyclohexa-2,5-dien-1-one]
